The record followed here is patent publication EP4463162B1, “CONNEXIN 43 FOR USE IN TREATING BRCA1/2-MUTATED CANCER” (Fundación Profesor Novoa Santos, priority 2022, dated 2023).

In test [1] the test system is HCC1937 spheroids. As to the kind of experiment: Three-dimensional tumour spheroid proliferation (spheroid area). Type of test: cell-based, human. To be noted: for spheroid size, Cx43-restituted smaller than EV counterparts: after 8 days, 3000 initial cell density. How it is done: The bottom of 96-well flat bottom microplates (Greiner Bio-One) was coated with 1.5 % solution of UltraPure Low Melting Point Agarose (Invitrogen, Thermo Fisher Scientific). Agarose concave bottoms provide non-adhesive conditions and increase cell contacts. 100-200 µL of single-cell suspensions were plated on top of the agarose diluted in their respective media supplemented with 3.5 % Matrigel Matrix Basement Membrane Growth Factor Reduced (Corning) and 5 ng/mL human recombinant EGF (Sigma-Aldrich). Afterwards, plates were incubated under standard cell culture conditions and spheroids were monitored from day 2 onwards by optical microscopy.
Uniform-sized spheroids were produced by plating 3000 EV and Cx43_HCC1937 cells under ultra-low attachment conditions, as well as 5000 Cx43_HCC1937 cells in parallel to account for the expected anti-proliferative effect of Cx43 in untreated tumour cells (day -4) (Figure 7). […] Spheroids were individually tracked during this time and their size was registered every 48 h.
Afterwards, spheroid area measurements were pooled for each condition and EV spheroids were compared against Cx43_HCC1937 spheroids, either those plated at 3000 or 5000 initial cell densities.
Next, Cx43 involvement in the TNBC pathogenesis was studied under more physiological approaches, namely 3D spheroid culture (Figure 10.B) and Anoikis-inducing conditions (Figure 10.C). 3D spheroid culture (Figure 10.B) of HCC1937 cells for 12 days further corroborated the reduction in proliferation determined in 2D culture (Figure 10.A) resulting from Cx43 restoration.

Test [2] deals with γH2AX (p-Ser139). As to the kind of experiment: Western blot and immunofluorescence against γH2AX. The note with it: Cx43_HCC1937, 50/100 µM olaparib, 96 h, vs basal condition and same treatments in EV_HCC1937. Type of test: cell-based, human. How it is done:
2 000-10 000 cells were plated on glass coverslips (Thermo Fisher Scientific) previously coated with poly-D-lysine hydrobromide (Sigma-Aldrich) and cultured until they were approximately 80 % confluent. They were washed with PBS, fixed with 4 % paraformaldehyde (PFA, Sigma-Aldrich) in PBS for 15 min at room temperature and rinsed twice with PBS. Next, cells were incubated with 0.1 M glycine (Sigma-Aldrich) in distilled water to quench PFA for 10 min at room temperature, and then their membranes were permeabilized with 0.2 % Triton X-100 (Sigma-Aldrich) in PBS for 10 min at room temperature. After two 5 min PBS washes, potential nonspecific antibody binding sites were blocked with 1 % bovine serum albumin (BSA; Sigma-Aldrich) diluted in PBST (PBS+0.1 % Tween 20; Sigma-Aldrich) for 30 min at room temperature. Cells were incubated overnight at 4 °C in the dark with primary antibody (see references in Table 3) diluted in 1 % BSA in PBST. […]
Protein extracts were mixed with loading buffer, which consisted of 10 % (v/v) β-mercaptoethanol (Sigma-Aldrich), 10 % SDS, 50 % (v/v) glycerol, 200 mM Tris-HCl pH 6.8 and 0.1 % bromophenol blue (Sigma-Aldrich). […] Ponceau staining and western blot images were analysed and their band intensities quantitated with Image J software.

For the compound `O=C(c1cc(Cc2n[nH]c(=O)c3ccccc23)ccc1F)N1CCN(C(=O)C2CC2)CC1` [Olaparib, olaparib], the spheroid appearance result in test [1] (Cx43_HCC1937 spheroids (3000 and 5000), 8 days of 600 µM olaparib, vs well-defined EV_HCC1937 spheroids) is reported as “almost non-existent”. Also, the figures for the “spheroid size, Cx43-restituted smaller than EV counterparts” value in test [1] (olaparib 200 µM), in test [1] (olaparib 400 µM) and in test [1] (olaparib 600 µM) were 41.7%, 29.68% and 12.57%, respectively. Also, in test [2], the “γH2AX (p-Ser139)” value is reported as “significant γH2AX increase”.
